Experimental data reported in BindingDB's records for patent US10081629 (Jiangsu Hengrui Medicine, 2018).

Target: T1, Prostaglandin E synthase (Homo sapiens, UniProt O14684)
T1 sequence (O14684 whole entry): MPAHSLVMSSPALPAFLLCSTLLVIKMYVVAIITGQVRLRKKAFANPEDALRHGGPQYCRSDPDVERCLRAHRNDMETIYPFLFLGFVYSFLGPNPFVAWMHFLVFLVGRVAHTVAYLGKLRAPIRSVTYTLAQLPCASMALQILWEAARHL
Assay: mPGES1 enzyme assay
Procedure: mPGES1 was diluted with assay buffer and added into plate at 49 μL/well supplemented with 1 μL of compound (the final concentration of each compound at seven gradient concentrations was 10000 nM, 1000 nM, 100 nM, 10 nM, 1 nM, 0.1 nM and 0.01 nM). […] Then, each well was added with 53.8 μL of 6 mg/mL SnCl2 to quench the reaction. The sample was diluted with dilute buffer at 1:400. 10 μl of diluted sample, 5 μL PGE2-d2 and 5 μL anti-PGE2 Cryptate were added to a black 384-well plate, and incubated at 4° C. overnight. HTRF was determined using Flexstation, and the IC50 of the compounds was obtained by data processing software.

**Q.** With COCCn1c(C2=CC=C(C(F)(F)F)CC2)cc2cc(NC(=O)c3cc(CNC(=O)C(C)(C)F)cnc3C(F)F)ccc21 [US10081629, Example 27] as the compound, how does the IC50 read?
**A.** The IC50 was 13.4 nM.
